# Data taken from patent US12544395B2, “Combination compositions comprising a beta-lactamase inhibitor and uses thereof” (priority 2018, dated 2026).
# Key:
# Type in all cases: cell-based
# E. coli 25922 = assay: Broth microdilution MIC (strain enzymes: None detected)
# E. coli 2806 = assay: Broth microdilution MIC (strain enzymes: SHV-12, TEM-1)
# K. oxytoca 176877 = assay: Broth microdilution MIC (strain enzymes: SHV-105)
# K. pneumoniae ESBL 7 #1 = assay: Broth microdilution MIC (strain enzymes: SHV-12, TEM-1)
# K. pneumoniae KP 3 = assay: Broth microdilution MIC (strain enzymes: SHV-1, TEM-1)
# K. oxytoca 169219 = assay: Broth microdilution MIC (strain enzymes: TEM-1, CTXM-15)
smiles,measurement,setting,value
"CCC(=O)N[C@H]1Cc2cccc(C(=O)O)c2OB1O [Compound 2, (R)-2-hydroxy-3-propionamido-3,4-dihydro-2H-benzo[e][1,2]oxaborinine-8-carboxylic acid]",MIC of cefixime (CFM),E. coli 25922; with inhibitor at 2 μg/mL,0.06 µg/mL
same,MIC of ceftibuten (CTB),E. coli 25922; with inhibitor at 2 μg/mL,0.06 µg/mL
same,MIC of cefalexin (LEX),E. coli 25922; with inhibitor at 4 μg/mL,0.125 µg/mL
same,MIC of cefdinir (CDR),E. coli 25922; with inhibitor at 4 μg/mL,0.125 µg/mL
same,MIC of cefixime (CFM),E. coli 25922; with inhibitor at 4 μg/mL,0.06 µg/mL
same,MIC of ceftibuten (CTB),E. coli 25922; with inhibitor at 4 μg/mL,0.06 µg/mL
same,MIC of cefalexin (LEX),E. coli 2806; with inhibitor at 1 μg/mL,0.125 µg/mL
same,MIC of cefdinir (CDR),E. coli 2806; with inhibitor at 1 μg/mL,0.125 µg/mL
same,MIC of cefixime (CFM),E. coli 2806; with inhibitor at 1 μg/mL,0.25 µg/mL
same,MIC of ceftibuten (CTB),E. coli 2806; with inhibitor at 1 μg/mL,0.06 µg/mL
same,MIC of cefalexin (LEX),E. coli 2806; with inhibitor at 2 μg/mL,0.125 µg/mL
same,MIC of cefdinir (CDR),E. coli 2806; with inhibitor at 2 μg/mL,0.125 µg/mL
same,MIC of cefixime (CFM),E. coli 2806; with inhibitor at 2 μg/mL,0.125 µg/mL
same,MIC of ceftibuten (CTB),E. coli 2806; with inhibitor at 2 μg/mL,0.125 µg/mL
same,MIC of cefalexin (LEX),E. coli 2806; with inhibitor at 4 μg/mL,0.25 µg/mL
same,MIC of cefdinir (CDR),E. coli 2806; with inhibitor at 4 μg/mL,0.25 µg/mL
same,MIC of cefixime (CFM),E. coli 2806; with inhibitor at 4 μg/mL,0.125 µg/mL
same,MIC of ceftibuten (CTB),E. coli 2806; with inhibitor at 4 μg/mL,0.125 µg/mL
same,MIC of cefalexin (LEX),K. oxytoca 176877; with inhibitor at 1 μg/mL,2 µg/mL
same,MIC of cefdinir (CDR),K. oxytoca 176877; with inhibitor at 1 μg/mL,2 µg/mL
same,MIC of cefixime (CFM),K. oxytoca 176877; with inhibitor at 1 μg/mL,1 µg/mL
same,MIC of ceftibuten (CTB),K. oxytoca 176877; with inhibitor at 1 μg/mL,0.5 µg/mL
same,MIC of cefalexin (LEX),K. oxytoca 176877; with inhibitor at 2 μg/mL,2 µg/mL
same,MIC of cefdinir (CDR),K. oxytoca 176877; with inhibitor at 2 μg/mL,2 µg/mL
same,MIC of cefixime (CFM),K. oxytoca 176877; with inhibitor at 2 μg/mL,0.5 µg/mL
same,MIC of ceftibuten (CTB),K. oxytoca 176877; with inhibitor at 2 μg/mL,0.125 µg/mL
same,MIC of cefalexin (LEX),K. oxytoca 176877; with inhibitor at 4 μg/mL,1 µg/mL
same,MIC of cefdinir (CDR),K. oxytoca 176877; with inhibitor at 4 μg/mL,1 µg/mL
same,MIC of cefixime (CFM),K. oxytoca 176877; with inhibitor at 4 μg/mL,0.5 µg/mL
same,MIC of ceftibuten (CTB),K. oxytoca 176877; with inhibitor at 4 μg/mL,0.25 µg/mL
same,MIC of cefalexin (LEX),K. pneumoniae ESBL 7 #1; with inhibitor at 1 μg/mL,0.5 µg/mL
same,MIC of cefdinir (CDR),K. pneumoniae ESBL 7 #1; with inhibitor at 1 μg/mL,0.5 µg/mL
same,MIC of cefixime (CFM),K. pneumoniae ESBL 7 #1; with inhibitor at 1 μg/mL,4 µg/mL
same,MIC of ceftibuten (CTB),K. pneumoniae ESBL 7 #1; with inhibitor at 1 μg/mL,0.25 µg/mL
same,MIC of cefalexin (LEX),K. pneumoniae ESBL 7 #1; with inhibitor at 2 μg/mL,1 µg/mL
same,MIC of cefdinir (CDR),K. pneumoniae ESBL 7 #1; with inhibitor at 2 μg/mL,1 µg/mL
same,MIC of cefixime (CFM),K. pneumoniae ESBL 7 #1; with inhibitor at 2 μg/mL,4 µg/mL
same,MIC of ceftibuten (CTB),K. pneumoniae ESBL 7 #1; with inhibitor at 2 μg/mL,0.25 µg/mL
same,MIC of cefalexin (LEX),K. pneumoniae ESBL 7 #1; with inhibitor at 4 μg/mL,0.5 µg/mL
same,MIC of cefdinir (CDR),K. pneumoniae ESBL 7 #1; with inhibitor at 4 μg/mL,0.5 µg/mL
same,MIC of cefixime (CFM),K. pneumoniae ESBL 7 #1; with inhibitor at 4 μg/mL,1 µg/mL
same,MIC of ceftibuten (CTB),K. pneumoniae ESBL 7 #1; with inhibitor at 4 μg/mL,0.125 µg/mL
same,MIC of cefalexin (LEX),K. pneumoniae KP 3; with inhibitor at 1 μg/mL,0.5 µg/mL
same,MIC of cefdinir (CDR),K. pneumoniae KP 3; with inhibitor at 1 μg/mL,0.5 µg/mL
same,MIC of cefixime (CFM),K. pneumoniae KP 3; with inhibitor at 1 μg/mL,4 µg/mL
same,MIC of ceftibuten (CTB),K. pneumoniae KP 3; with inhibitor at 1 μg/mL,0.25 µg/mL
same,MIC of cefalexin (LEX),K. pneumoniae KP 3; with inhibitor at 2 μg/mL,0.25 µg/mL
same,MIC of cefdinir (CDR),K. pneumoniae KP 3; with inhibitor at 2 μg/mL,0.25 µg/mL
same,MIC of cefixime (CFM),K. pneumoniae KP 3; with inhibitor at 2 μg/mL,4 µg/mL
same,MIC of ceftibuten (CTB),K. pneumoniae KP 3; with inhibitor at 2 μg/mL,0.25 µg/mL
same,MIC of cefalexin (LEX),K. pneumoniae KP 3; with inhibitor at 4 μg/mL,0.5 µg/mL
same,MIC of cefdinir (CDR),K. pneumoniae KP 3; with inhibitor at 4 μg/mL,0.5 µg/mL
same,MIC of cefixime (CFM),K. pneumoniae KP 3; with inhibitor at 4 μg/mL,2 µg/mL
same,MIC of ceftibuten (CTB),K. pneumoniae KP 3; with inhibitor at 4 μg/mL,0.125 µg/mL
same,MIC of cefalexin (LEX),K. oxytoca 169219; with inhibitor at 1 μg/mL,1 µg/mL
same,MIC of cefdinir (CDR),K. oxytoca 169219; with inhibitor at 1 μg/mL,1 µg/mL
same,MIC of cefixime (CFM),K. oxytoca 169219; with inhibitor at 1 μg/mL,0.25 µg/mL
same,MIC of ceftibuten (CTB),K. oxytoca 169219; with inhibitor at 1 μg/mL,0.03 µg/mL
same,MIC of cefalexin (LEX),K. oxytoca 169219; with inhibitor at 2 μg/mL,0.5 µg/mL
same,MIC of cefdinir (CDR),K. oxytoca 169219; with inhibitor at 2 μg/mL,0.5 µg/mL
same,MIC of cefixime (CFM),K. oxytoca 169219; with inhibitor at 2 μg/mL,0.125 µg/mL
same,MIC of ceftibuten (CTB),K. oxytoca 169219; with inhibitor at 2 μg/mL,0.0149 µg/mL
same,MIC of cefalexin (LEX),K. oxytoca 169219; with inhibitor at 4 μg/mL,0.5 µg/mL
same,MIC of cefdinir (CDR),K. oxytoca 169219; with inhibitor at 4 μg/mL,0.5 µg/mL
same,MIC of cefixime (CFM),K. oxytoca 169219; with inhibitor at 4 μg/mL,0.125 µg/mL
same,MIC of ceftibuten (CTB),K. oxytoca 169219; with inhibitor at 4 μg/mL,0.0149 µg/mL
